# Patent US20130034536A1, “Bile Acid Recycling Inhibitors for Treatment of Pancreatitis” (Lumena Pharmaceuticals, Inc., priority 2011, published 2013)
# Test system: plasma active GLP-1 levels
# Assay: In vivo effects of ASBT inhibitor SC-435 on plasma active GLP-1 levels in rats (ELISA)
# Set-up: species or system Sprague Dawley rats
# Experimental: Male Sprague Dawley rats (HSD) 12 weeks old were fasted overnight for 16 hours.
# SC-435 (racemate form synthesized at Nanosyn Inc. Menlo Park, Calif.) in 1 ml of saline administrated orally via gavage tube (n=5 per group).
# Blood samples (200 μl) taken from the caudal vein with capillary tube at […] after compound administration for testing of plasma active GLP-1 levels (ELISA, Millipore Inc.)
# Blood was collected in ice-cooled EDTA vial. Immediately (<30 seconds) after collection DPP-IV inhibitor added (10mkl per 1 ml blood). Samples were centrifuged immediately at 1000×g for 10 minutes in refrigerated centrifuge. Plasma was stored at −70° C. until evaluation.
substance,measurement,setting,value
"1-[4-[4-[(4R,5R)-3,3-dibutyl-7-(dimethylamino)-2,3,4,5-tetrahydro-4-hydroxy-1,1-dioxido-benzothiepin-5-yl]phenoxy]butyl]-4-aza-1-azoniabicyclo[2.2.2]octane methanesulfonate salt [SC-435]",time of peak GLP-1 after administration,after oral SC-435 administration,3 to 5 h
same,increase of 5-hour integrated GLP-1 concentrations vs. vehicle,"oral gavage, doses 3, 30 or 100 mg/kg, overnight-fasted male rats, dose-dependent",2.5 fold
same,Peak GLP-1,plasma active GLP-1 after oral SC-435,30 to 36 pM
